Laboratory results taken from patent US12692249B2, “WDR5 inhibitors and modulators” (Vanderbilt University, priority 2019, dated 2026).
pKi: −log10 of the molar value. Read-outs that look alike come from different tables or passages of the source.

Tests used:
[1] = system: MV4:11 human cancer cell lines; assay: Cellular viability / anti-proliferative assay, CellTiter-Glo, 5 day protocol; type: cell-based; settings: Homo sapiens, MV4-11, 120 h, read-out: GI50 on cellular proliferation of MV4:11 human cancer cell lines
Summary of the method: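 Luminescent ATP-based viability (CellTiter-Glo) after a 5-day exposure gave GI50 via sigmoidal fitting, averaged over two or more replicates. Compounds spanned 22 two-fold steps down from 30 μM at 0.3% DMSO, on 200 MV-4-11 cells per well grown in IMDM plus 10% FBS.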

WDR5 = WDR5 (Homo sapiens, UniProt P61964); assay: TR-FRET competition binding assay, displacement of 10mer-Thr-FAM MLL peptide probe from His-tagged WDR5; settings: WDR5-His tag (residues 24-334) 2 nM; 10mer-Thr-FAM 150 nM; 60 min, room temperature; read-out: Ki for Inhibition of WDR5 by TR-FRET assay
[2] = MV4:11 cells, 5 day incubation, CellTiter-Glo, mean of at least two replicates

SMILES	GI50 [1, 2]	pKi (WDR5)	GI50 [1]
CCn1cc(-c2cc(Cn3ccnc3C)cc3c2CCN(c2cccc4ncc(OC)cc24)C3=O)c(C(F)(F)F)n1 [Example 50, 5-(1-Ethyl-3-(trifluoromethyl)-1H-pyrazol-4-yl)-2-(3-methoxyquinolin-5-yl)-7-((2-methyl-1H-imidazol-1-yl)methyl)-3,4-dihydroisoquinolin-1(2H)-one]	22 nM	> 10.70	–
CN1CC[C@H](N2CCc3c(cc(Cn4ccnc4)cc3-c3cn(C)nc3C(F)(F)F)C2=O)c2cc(Cl)cnc21 [Example 73, (S)-7-((1H-Imidazol-1-yl)methyl)-2-(6-chloro-1-methyl-1,2,3,4-tetrahydro-1,8-naphthyridin-4-yl)-5-(1-methyl-3-(trifluoromethyl)-1H-pyrazol-4-yl)-3,4-dihydroisoquinolin-1(2H)-one]	–	> 10.70	< 20 nM
CCn1cc(-c2cc(Cn3ccnc3)cc3c2CCN(c2cc(C)nc4ccc(OC)cc24)C3=O)c(C(F)(F)F)n1 [Example 53, 7-((1H-Imidazol-1-yl)methyl)-5-(1-ethyl-3-(trifluoromethyl)-1H-pyrazol-4-yl)-2-(6-methoxy-2-methylquinolin-4-yl)-3,4-dihydroisoquinolin-1(2H)-one]	59 nM	> 10.70	–
COc1cc(C2CCOCC2)c2nc(C)cc(N3CCc4c(cc(Cn5ccnc5)cc4-c4cn(C)nc4C(F)(F)F)C3=O)c2c1 [Example 165, 7-((1H-Imidazol-1-yl)methy)-2-(6-methoxy-2-methyl-8-(tetrahydro-2H-pyran-4-yl)quinolin-4-yl)-5-(1-methyl-3-(trifluoromethyl)-1H-pyrazol-4-yl)-3,4-dihydroisoquinolin-1(2H)-one]	–	10.38	129 nM
COc1ccc2c(c1)c(N1CCc3c(cc(Cn4ccnc4C)cc3-c3cn(C)nc3C(F)(F)F)C1=O)cn2C [Example 78, 2-(5-Methoxy-1-methyl-1H-indol-3-yl)-7-((2-methyl-1H-imidazol-1-yl)methyl)-5-(1-methyl-3-(trifluoromethyl)-1H-pyrazol-4-yl)-3,4-dihydroisoquinolin-1(2H)-one]	48 nM	10.54	–
COc1ccc2c(c1)c(N1CCc3c(cc(Cn4ccnc4C)cc3-c3cn(C)nc3C(F)(F)F)C1=O)c(C)n2C [Example 80, 2-(5-Methoxy-1,2-dimethyl-1H-indol-3-yl)-7-((2-methyl-1H-imidazol-1-yl)methyl)-5-(1-methyl-3-(trifluoromethyl)-1H-pyrazol-4-yl)-3,4-dihydroisoquinolin-1(2H)-one]	61 nM	10.54	–
COc1ccc2c(c1)c(N1CCc3c(cc(Cn4ccnc4C)cc3-c3cn(C)nc3C(F)(F)F)C1=O)nn2C [Example 81, 2-(5-Methoxy-1-methyl-1H-indazol-3-yl)-7-((2-methyl-1H-imidazol-1-yl)methyl)-5-(1-methyl-3-(trifluoromethyl)-1H-pyrazol-4-yl)-3,4-dihydroisoquinolin-1(2H)-one]	38 nM	> 10.70	–
CCc1cnc2cc(C)cc(N3CCc4c(cc(Cn5ccnc5)cc4-c4cn(C)nc4C(F)(F)F)C3=O)c2c1 [Example 129, 7-((1H-Imidazol-1-yl)methyl)-2-(3-ethyl-7-methylquinolin-5-yl)-5-(1-methyl-3-(trifluoromethyl)-1H-pyrazol-4-yl)-3,4-dihydroisoquinolin-1(2H)-one]	–	10.54	35 nM
CCn1cc(-c2cc(Cn3ccnc3C)cc3c2CCN(c2cc(C)nc4ccc(OC)cc24)C3=O)c(C(F)(F)F)n1 [Example 51, 5-(1-Ethyl-3-(trifluoromethyl)-1H-pyrazol-4-yl)-2-(6-methoxy-2-methylquinolin-4-yl)-7-((2-methyl-1H-imidazol-1-yl)methyl)-3,4-dihydroisoquinolin-1(2H)-one]	< 20 nM	> 10.70	–
Cc1cc2c(N3CCc4c(cc(Cn5ccnc5)cc4-c4cn(C)nc4C(F)(F)F)C3=O)cccc2n1C [Example 26, 7-((1H-Imidazol-1-yl)methyl)-2-(1,2-dimethyl-1H-indol-4-yl)-5-(1-methyl-3-(trifluoromethyl)-1H-pyrazol-4-yl)-3,4-dihydroisoquinolin-1(2H)-one]	369 nM	10.06	–
Cn1cc(-c2cc(Cn3ccnc3)cc3c2CCN(c2cccc4ncc(C5CC5)cc24)C3=O)c(C(F)(F)F)n1 [Example 130, 7-((1H-Imidazol-1-yl)methyl)-2-(3-cyclopropylquinolin-5-yl)-5-(1-methyl-3-(trifluoromethyl)-1H-pyrazol-4-yl)-3,4-dihydroisoquinolin-1(2H)-one]	–	10.29	218 nM

Further lines, with some results ahead:

GI50 [1, 2]	pKi (WDR5)	SMILES	GI50 [1]
33 nM	> 10.70	CCc1cc(COC2CNC2)c2nccc(N3CCc4c(cc(Cn5ccnc5)cc4-c4cn(C)nc4C(F)(F)F)C3=O)c2c1 [Example 179, 7-((1H-Imidazol-1-yl)methyl)-2-(8-((azetidin-3-yloxy)methyl)-6-ethylquinolin-4-yl)-5-(1-methyl-3-(trifluoromethyl)-1H-pyrazol-4-yl)-3,4-dihydroisoquinolin-1(2H)-one]	–
29 nM	> 10.70	COc1cc(C(=O)NC2CN(C(=O)c3ccncc3)C2)c2nccc(N3CCc4c(cc(Cn5ccnc5)cc4-c4cn(C)nc4C(F)(F)F)C3=O)c2c1 [Example 242, 4-(7-((1H-Imidazol-1-yl)methyl)-5-(1-methyl-3-(trifluoromethyl)-1H-pyrazol-4-yl)-1-oxo-3,4-dihydroisoquinolin-2(1H)-yl)-N-(1-isonicotinoylazetidin-3-yl)-6-methoxyquinoline-8-carboxamide]	–
< 20 nM	> 10.70	CCc1cc(C(=O)NCCNC(=O)c2ccncc2)c2nccc(N3CCc4c(cc(Cn5ccnc5)cc4-c4cn(C)nc4C(F)(F)F)C3=O)c2c1 [Example 213, 4-(7-((1H-imidazol-1-yl)methyl)-5-(1-methyl-3-(trifluoromethyl)-1H-pyrazol-4-yl)-1-oxo-3,4-dihydroisoquinolin-2(1H)-yl)-6-ethyl-N-(2-(isonicotinamido)ethyl)quinoline-8-carboxamide]	–
51 nM	> 10.70	CNC(=O)c1cc(N2CCc3c(cc(Cn4ccnc4)cc3-c3cn(C)nc3C(F)(F)F)C2=O)c2cc(OC)ccc2n1 [Example 237, 4-(7-((1H-Imidazol-1-yl)methyl)-5-(1-methyl-3-(trifluoromethyl)-1H-pyrazol-4-yl)-1-oxo-3,4-dihydroisoquinolin-2(1H)-yl)-6-methoxy-N-methylquinoline-2-carboxamide]	–
< 20 nM	10.15	COc1cc(CN2CCN3CCOC[C@@H]3C2)c2nccc(N3CCc4c(cc(Cn5ccnc5)cc4-c4cn(C)nc4C(F)(F)F)C3=O)c2c1 [Example 141, (S)-7-((1H-Imidazol-1-yl)methyl)-2-(8-((hexahydropyrazino[2,1-c][1,4]oxazin-8(1H)-yl)methyl)-6-methoxyquinolin-4-yl)-5-(1-methyl-3-(trifluoromethyl)-1H-pyrazol-4-yl)-3,4-dihydroisoquinolin-1(2H)-one]	–
< 20 nM	10.44	COc1cc(CN2CCC(OC)CC2)c2nccc(N3CCc4c(cc(Cn5ccnc5)cc4-c4cn(C)nc4C(F)(F)F)C3=O)c2c1 [Example 142, 7-((1H-Imidazol-1-yl)methyl)-2-(6-methoxy-8-((4-methoxypiperidin-1-yl)methyl)quinolin-4-yl)-5-(1-methyl-3-(trifluoromethyl)-1H-pyrazol-4-yl)-3,4-dihydroisoquinolin-1(2H)-one]	–
< 20 nM	> 10.70	CCc1cc(C(=O)NCCNC(=O)c2cscn2)c2nccc(N3CCc4c(cc(Cn5ccnc5)cc4-c4cn(C)nc4C(F)(F)F)C3=O)c2c1 [Example 216, N-(2-(4-(7-((1H-Imidazol-1-yl)methyl)-5-(1-methyl-3-(trifluoromethyl)-1H-pyrazol-4-yl)-1-oxo-3,4-dihydroisoquinolin-2(1H)-yl)-6-ethylquinoline-8-carboxamido)ethyl)thiazole-4-carboxamide]	–
43 nM	10.42	COc1cc2c(N3CCc4c(cc(Cn5ccnc5)cc4-c4cn(C)nc4C(F)(F)F)C3=O)cccc2nc1C [Example 114, 7-((1H-Imidazol-1-yl)methyl)-2-(3-methoxy-2-methylquinolin-5-yl)-5-(1-methyl-3-(trifluoromethyl)-1H-pyrazol-4-yl)-3,4-dihydroisoquinolin-1(2H)-one]	–
31 nM	> 10.70	CCc1cc(C(=O)Nc2ccncc2)c2nccc(N3CCc4c(cc(Cn5ccnc5)cc4-c4cn(C)nc4C(F)(F)F)C3=O)c2c1 [Example 158, 4-(7-((1H-Imidazol-1-yl)methyl)-5-(1-methyl-3-(trifluoromethyl)-1H-pyrazol-4-yl)-1-oxo-3,4-dihydroisoquinolin-2(1H)-yl)-6-ethyl-N-(pyridin-4-yl)quinoline-8-carboxamide]	–
< 20 nM	> 10.70	COc1cc(COC2CCN(C)CC2)c2nccc(N3CCc4c(cc(Cn5ccnc5)cc4-c4cn(C)nc4C(F)(F)F)C3=O)c2c1 [Example 169, 7-((1H-Imidazol-1-yl)methyl)-2-(6-methoxy-8-(((1-methylpiperidin-4-yl)oxy)methyl)quinolin-4-yl)-5-(1-methyl-3-(trifluoromethyl)-1H-pyrazol-4-yl)-3,4-dihydroisoquinolin-1(2H)-one]	–
< 20 nM	10.33	COCCN1CCN(Cc2cc(OC)cc3c(N4CCc5c(cc(Cn6ccnc6)cc5-c5cn(C)nc5C(F)(F)F)C4=O)ccnc23)CC1 [Example 144, 7-((1H-Imidazol-1-yl)methyl)-2-(6-methoxy-8-((4-(2-methoxyethyl)piperazin-1-yl)methyl)quinolin-4-yl)-5-(1-methyl-3-(trifluoromethyl)-1H-pyrazol-4-yl)-3,4-dihydroisoquinolin-1(2H)-one]	–
